According to patent US12133529B2, “Herbicidal phenylethers” (BASF SE, priority 2017, dated 2024):

Assays:
Assay type in all cases: in vivo
[1] = tested on: ECHCG (Echinocloa crus-galli); test: greenhouse herbicidal activity, post-emergence treatment; settings: scale from 0 to 100; for pest or weed control at 16 g/ha: Echinochloa crus-galli, post-emergence method, application rate 16 g/ha, read-out: herbicidal activity against ECHCG; for damages unwanted plants ECHCG: post-emergence application, 2 g/ha, control 21 days after treatment (greenhouse)
Text: (§1) The seeds of the test plants were sown separately for each species. For the post-emergence treatment, the test plants were first grown to a height of 3 to 15 cm, depending on the plant habit, and only then treated with the active ingredients which had been suspended or emulsified in water. For this purpose, the test plants were either sown directly and grown in the same containers, or they were first grown separately as seedlings and transplanted into the test containers a few days prior to treatment. Depending on the species, the plants were kept at 10-25° C. or 20-35° C., respectively. The test period extended over 2 to 4 weeks. During this time, the plants were tended, and their response to the individual treatments was evaluated. Evaluation was carried out using a scale from 0 to 100. 100 means no emergence of the plants, or complete destruction of at least the aerial moieties, and 0 means no damage, or normal course of growth. A good herbicidal activity is given at values of at least 70 and a very good herbicidal activity is given at values of at least 85. [table]

[2] = tested on: CHEAL (Chenopodium album); test: as above; settings: post-emergence method, application rate 16 g/ha, scale from 0 to 100, read-out: herbicidal activity against CHEAL
Text: as §1

[3] = tested on: AMARE (Amaranthus retroflexus); test: as above; settings: post-emergence method, application rate 16 g/ha, scale from 0 to 100, read-out: herbicidal activity against AMARE
Text: as §1

[4] = tested on: SETVI (Setaria viridis); test: as above; settings: post-emergence method, application rate 16 g/ha, scale from 0 to 100, read-out: herbicidal activity against SETVI
Text: as §1

[5] = tested on: ZEAMX (Zea mays); test: greenhouse crop plant damage, post-emergence treatment; settings: post-emergence application, 2 g/ha, control 21 days after treatment (greenhouse), scale from 0 to 100
Text: as §1

[6] = tested on: AMARE (Amaranthus retroflexus); test: greenhouse herbicidal activity, pre-emergence treatment; settings: pre-emergence application, 32 g/ha, control 21 days after treatment (greenhouse), scale from 0 to 100
Text: (§2) The seeds of the test plants were sown separately for each species. For the pre-emergence treatment, the active ingredients, which had been suspended or emulsified in water, were applied directly after sowing by means of finely distributing nozzles. The containers were irrigated gently to promote germination and growth and subsequently covered with transparent plastic hoods until the plants had rooted. This cover caused uniform germination of the test plants, unless this had been impaired by the active ingredients. Depending on the species, the plants were kept at 10-25° C. or 20-35° C., respectively. The test period extended over 2 to 4 weeks. During this time, the plants were tended, and their response to the individual treatments was evaluated. Evaluation was carried out using a scale from 0 to 100. 100 means no emergence of the plants, or complete destruction of at least the aerial moieties, and 0 means no damage, or normal course of growth. A good herbicidal activity is given at values of at least 70 and a very good herbicidal activity is given at values of at least 85. [table]

[7] = tested on: ZEAMX (Zea mays); test: greenhouse crop plant damage, pre-emergence treatment; settings: pre-emergence application, 32 g/ha, control 21 days after treatment (greenhouse), scale from 0 to 100
Text: as §2

SMILES	pest or weed control at 16 g/ha [1]	pest or weed control at 16 g/ha [2]	pest or weed control at 16 g/ha [3]	pest or weed control at 16 g/ha [4]	damages unwanted plants ECHCG [1]	damages crop plants ZEAMX [5]	damages unwanted plants AMARE [6]	damages crop plants ZEAMX [7]
CCOC(=O)COc1ncccc1Oc1cc(-c2nn(C)c(OC(F)F)c2Cl)c(F)cc1Cl [Example 1, ethyl 2-[[3-[2-chloro-5-[4-chloro-5-(difluoromethoxy)-1-methyl-pyrazol-3-yl]-4-fluoro-phenoxy]-2-pyridyl]oxy]acetate]	≥ 85%	≥ 85%	≥ 85%	≥ 85%				
CCOC(=O)COc1ncccc1Oc1cc(-n2nc3n(c2=O)CCCC3)c(Cl)cc1Cl [Example 2, ethyl 2-[[3-[2,4-dichloro-5-(3-oxo-5,6,7,8-tetrahydro-[1,2,4]triazolo[4,3-a]pyridin-2-yl)phenoxy]-2-pyridyl]oxy]acetate]	≥ 85%	≥ 85%	≥ 85%	≥ 85%				
CCOC(=O)COc1ncccc1Oc1cc(-n2c(=O)c(C)c(C(F)(F)F)n(C)c2=O)c(F)cc1[N+](=O)[O-] [Example 4, Ethyl 2-[[3-[5-[3,5-dimethyl-2,6-dioxo-4-(trifluoromethyl)pyrimidin-1-yl]-4-fluoro-2-nitro-phenoxy]-2-pyridyl]oxy]acetate]	≥ 85%	≥ 85%	≥ 85%	≥ 85%				
COC(=O)C(OC)Oc1ccccc1Oc1cc(-n2nc3n(c2=O)CCCC3)c(Cl)cc1Cl (stereo not drawn) [Example 7]	≥ 85%	≥ 85%	≥ 85%	≥ 85%				
O=C(O)COc1ncccc1Oc1cc(-n2nc3n(c2=O)CCCC3)c(Cl)cc1Cl [Example 8]	≥ 85%	≥ 85%	≥ 85%	≥ 85%				
CCOC(=O)C(C)Oc1ncccc1Oc1cc(-n2nc3n(c2=O)CCCC3)c(Cl)cc1Cl (stereo not drawn) [Example 9]	≥ 85%	≥ 85%	≥ 85%					
CCOC(=O)COc1ncccc1Oc1cc(-c2nn(C)c(C(F)(F)F)cc2=O)c(F)cc1Cl [Example 15]	≥ 85%	≥ 85%	≥ 85%	≥ 85%				
CCOC(=O)COc1ccccc1Oc1cc(-n2c(=O)c(C)c(C(F)(F)F)n(C)c2=O)c(F)cc1Cl [Example 16]	≥ 85%	≥ 85%	≥ 85%	≥ 85%	100	10		
CCOC(=O)COc1ccccc1Oc1cc(-n2c(=S)cc(C(F)(F)F)n(C)c2=O)c(F)cc1Cl [Example 17]	≥ 85%	≥ 85%	≥ 85%	≥ 85%			100	0
CCOC(=O)COc1ncccc1Oc1cc(-c2ncc(C(F)(F)F)cc2Cl)c(F)cc1Cl [Example 18]	≥ 85%	≥ 85%	≥ 85%	≥ 85%				
O=C(O)COc1ncccc1Oc1cc(-c2ncc(C(F)(F)F)cc2Cl)c(F)cc1Cl [Example 19]	≥ 85%	≥ 85%	≥ 85%	≥ 85%				
CCOC(=O)COc1ccccc1Oc1cc(-n2c(=O)cc(C(F)(F)F)n(C)c2=O)c(F)cc1Cl [compound a-9, reference compound]					98	70	100	40
